{"source": "patent US20130261077A1", "about": "(priority 2012, published 2013)"}
{"biological_target": "T1, FimH-CRD (Escherichia coli, UniProt P08191)", "T1 construct": "The first 177 amino acids of the FimH protein; thrombin tag (printed as 'fusion protein with thrombin') (cleaved yes); made in house; host or cells: bacteria (pET21b plasmid)", "T1 sequence (P08191 22-177)": "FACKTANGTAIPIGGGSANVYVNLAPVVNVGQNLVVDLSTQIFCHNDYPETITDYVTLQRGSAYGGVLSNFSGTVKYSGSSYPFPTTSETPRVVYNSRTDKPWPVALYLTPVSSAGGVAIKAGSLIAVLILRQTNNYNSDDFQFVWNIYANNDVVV", "test": "Competitive binding assay by fluorescence polarization, assay 1 (compounds prepared by manual serial dilution)", "protocol": "The first 177 amino acids of the FimH protein were expressed as a fusion protein with thrombin in a pET21b plasmid in bacteria. This FimH protein sequence contains the carbohydrate recognition domain (CRD) and shall be termed FimH-CRD. Following bacterial expression of the protein, the FimH-CRD protein was purified to homogeneity and the thrombin tag removed by protease cleavage. A competitive binding assay by fluorescence polarization was performed using 5 nM of the Alexa 647 mannoside probe and 60 nM of the FimH-CRD. The samples are assayed in a low volume 384 well microtiter plate in a final volume of 20 μl. The final assay buffer conditions are the following, 50 mM Tris-Cl, ph 7.0, 100 mM NaCl, 1 mM EDTA, 5 mM β-mercaptoethanol, 0.05% BSA and 2.5% DMSO. Two assays are performed for FimH, termed assay 1 or assay 2. The assay conditions are the same for both assays except the following: assay 1 has compounds prepared by manual dilution in a serial dilution factor with 12-point dose response while assay 2 has compounds prepared by a robotics system also through a serial dilution factor (12 point dose response) and initially prepared in duplicate in 384 well-Corning polypropylene round bottom plates. The assay 2 plates have compound which is then frozen and must be thawed prior to use. Initially the Alexa 647 probe and the FimH-CRD are added to the assay buffer and then 0.5 μl of test compound (assay 1 or 2) between 0.4 nM to 75 μM final concentration are added (12 point titration with 3-fold serial dilution). Control wells for the Alexa 647 probe are prepared with the same conditions except for the addition of the FimH-CRD protein. Plates are then incubated for 5 hrs at room temperature in the dark and under humid conditions to prevent drying. Plates are read using the SpectraMax Paradigm multi-mode plate reader and the appropriate fluorescent polarization detection cartridge (Alexa-647).\nAlexa 647 mannoside probe is prepared using the similar procedure reported for FAM mannoside (Han, Z. et. al., 2010, J. Med. Chem., 53, 4779) and is described in the scheme below.\nTo a blue colored stirred solution of (2S,3S,4S,5S,6R)-2-(4-aminobutoxy)-6-(hydroxymethyl)tetrahydropyran-3,4,5-triol (2.21 mg, 0.009 mmol) and the (2E)-2-[(2E,4E)-5-[3,3-dimethyl-5-sulfonato-1-(3-sulfonatopropyl)indol-1-ium-2-yl]penta-2,4-dienylidene]-3-[6-(2,5-dioxopyrrolidin-1-yl)oxy-6-oxo-hexyl]-3-methyl-1-(3-sulfonatopropyl)indoline-5-sulfonate (Potassium Ion (3)) (4.9 mg, 0.0044 mmol) in DMF (44 μL) is added Et3N (5.4 mg, 7.0 μL, 0.053 mmol) at RT. The solution is stirred at room temperature over night, concentrated, dissolved in water and purified on 12 g C-18 silica gel cartridge on Isolera system using acetonitrile in water (0 to 40%, 10 CV) and followed by lyophilization to afford Alexa 647 mannoside probe (3.3 mg, 34%) as deep blue solid.\nThe Kd values of the compounds are determined from dose response curves using twelve concentrations per compound in duplicate. Curves are fitted to data points using Fluorescence Polarization competitive displacement analysis, and Kds are interpolated from the resulting curves using GraphPad Prism software, version […] (GraphPad software Inc., San Diego, Calif., USA).", "units": {"IC50": "nM", "Kd": "nM"}}
{"molecule": "O=C(Nc1cccnc1)c1cccc([C@H]2O[C@H](CO)[C@@H](O)[C@H](O)[C@@H]2O)c1", "note": "[Compound 29, N-(pyridin-3-yl)-3-((2R,3S,4R,5S,6R)-3,4,5-trihydroxy-6-(hydroxymethyl)tetrahydro-2H-pyran-2-yl)benzamide]", "IC50": 59, "Kd": "18.1 ± 5.9"}
{"molecule": "O=C(Nc1nc2ccc(Cl)cc2s1)c1cccc([C@H]2O[C@H](CO)[C@@H](O)[C@H](O)[C@@H]2O)c1", "note": "[Compound 30, N-(6-chlorobenzo[d]thiazol-2-yl)-3-((2R,3S,4R,5S,6R)-3,4,5-trihydroxy-6-(hydroxymethyl)tetrahydro-2H-pyran-2-yl)benzamide]", "IC50": 53, "Kd": "9.8 ± 1.8"}
{"molecule": "CCCc1ccc(NC(=O)c2cccc([C@H]3O[C@H](CO)[C@@H](O)[C@H](O)[C@@H]3O)c2)cc1", "note": "[Compound 31, N-(4-propylphenyl)-3-((2R,3S,4R,5S,6R)-3,4,5-trihydroxy-6-(hydroxymethyl)tetrahydro-2H-pyran-2-yl)benzamide]", "IC50": 84, "Kd": "22.8 ± 0.9"}
{"molecule": "O=C(Nc1ccc2ccccc2c1)c1cccc([C@H]2O[C@H](CO)[C@@H](O)[C@H](O)[C@@H]2O)c1", "note": "[Compound 32, N-(naphthalen-2-yl)-3-((2R,3S,4R,5S,6R)-3,4,5-trihydroxy-6-(hydroxymethyl)tetrahydro-2H-pyran-2-yl)benzamide]", "IC50": 45, "Kd": "22.6 ± 18.7"}
{"molecule": "O=C(NCc1ccccc1)c1cccc([C@H]2O[C@H](CO)[C@@H](O)[C@H](O)[C@@H]2O)c1", "note": "[Compound 33, N-benzyl-3-((2R,3S,4R,5S,6R)-3,4,5-trihydroxy-6-(hydroxymethyl)tetrahydro-2H-pyran-2-yl)benzamide]", "IC50": 76, "Kd": "28.9 ± 14.5"}
{"molecule": "O=C(NCCc1ccccc1)c1cccc([C@H]2O[C@H](CO)[C@@H](O)[C@H](O)[C@@H]2O)c1", "note": "[Compound 34, N-phenethyl-3-((2R,3S,4R,5S,6R)-3,4,5-trihydroxy-6-(hydroxymethyl)tetrahydro-2H-pyran-2-yl)benzamide]", "IC50": 124, "Kd": "38 ± 7.1"}
{"molecule": "O=C(NC1CC1)c1cccc([C@H]2O[C@H](CO)[C@@H](O)[C@H](O)[C@@H]2O)c1", "note": "[Compound 36, N-cyclopropyl-3-((2R,3S,4R,5S,6R)-3,4,5-trihydroxy-6-(hydroxymethyl)tetrahydro-2H-pyran-2-yl)benzamide]", "IC50": 168, "Kd": "53.2 ± 6.5"}
{"molecule": "O=C(NCC1CC1)c1cccc([C@H]2O[C@H](CO)[C@@H](O)[C@H](O)[C@@H]2O)c1", "note": "[Compound 37, N-(cyclopropylmethyl)-3-((2R,3S,4R,5S,6R)-3,4,5-trihydroxy-6-(hydroxymethyl)tetrahydro-2H-pyran-2-yl)benzamide]", "Kd": "40.1 ± 15.1"}
{"molecule": "CNC(=O)c1cccc(-c2ccccc2[C@H]2O[C@H](CO)[C@@H](O)[C@H](O)[C@@H]2O)c1", "note": "[Compound 39, N-methyl-2′-((2R,3S,4R,5S,6R)-3,4,5-trihydroxy-6-(hydroxymethyl)tetrahydro-2H-pyran-2-yl)-[1,1′-biphenyl]-3-carboxamide]", "IC50": 1390, "Kd": "396 ± 44.7"}
{"molecule": "COc1ccc(Br)cc1[C@H]1O[C@H](CO)[C@@H](O)[C@H](O)[C@@H]1O", "note": "[Compound 41, (2R,3S,4R,5S,6R)-2-(5-bromo-2-methoxyphenyl)-6-(hydroxymethyl)tetrahydro-2H-pyran-3,4,5-triol]", "IC50": 223, "Kd": "47.8 ± 6.8"}
{"molecule": "COC(=O)CCc1ccc(OC)c([C@H]2O[C@H](CO)[C@@H](O)[C@H](O)[C@@H]2O)c1", "note": "[Compound 42, Methyl 3-(4-methoxy-3-((2R,3S,4R,5S,6R)-3,4,5-trihydroxy-6-(hydroxymethyl)tetrahydro-2H-pyran-2-yl)phenyl)propanoate]", "IC50": 225, "Kd": "58.4 ± 9.8"}
{"molecule": "OC[C@H]1O[C@H](c2cccc(-c3ccccc3)c2)[C@@H](O)[C@@H](O)[C@@H]1O", "note": "[Compound 43, (2R,3S,4R,5S,6R)-2-(hydroxymethyl)-6-(3-phenylphenyl)tetrahydropyran-3,4,5-triol]", "IC50": 64, "Kd": "12.4 ± 1.3"}
{"molecule": "OC[C@H]1O[C@H](c2ccccc2O)[C@@H](O)[C@@H](O)[C@@H]1O", "note": "[Compound 45, (2R,3S,4R,5S,6R)-2-(hydroxymethyl)-6-(2-hydroxyphenyl)tetrahydropyran-3,4,5-triol]", "IC50": 183, "Kd": "76.9 ± 49.1"}
{"molecule": "OC[C@H]1O[C@H](c2ccc(O)cc2)[C@@H](O)[C@@H](O)[C@@H]1O", "note": "[Compound 46, (2R,3S,4R,5S,6R)-2-(hydroxymethyl)-6-(4-hydroxyphenyl)tetrahydropyran-3,4,5-triol]", "IC50": 148, "Kd": "28.2 ± 13.3"}
{"molecule": "OC[C@H]1O[C@H](c2cccc(F)c2)[C@@H](O)[C@@H](O)[C@@H]1O", "note": "[Compound 47, (2R,3S,4R,5S,6R)-2-(3-fluorophenyl)-6-(hydroxymethyl)tetrahydropyran-3,4,5-triol]", "IC50": 163, "Kd": "40.6 ± 10.4"}
{"molecule": "CC(C)C(=O)Nc1ccc(-c2cccc([C@H]3O[C@H](CO)[C@@H](O)[C@H](O)[C@@H]3O)c2)cc1", "note": "[Compound 49, 2-methyl-N-[4-[3-[(2R,3S,4R,5S,6R)-3,4,5-trihydroxy-6-(hydroxymethyl)tetrahydropyran-2-yl]phenyl]phenyl]propanamide]", "IC50": 45, "Kd": "6.3 ± 1.4"}
{"molecule": "CNS(=O)(=O)c1cccc(-c2cccc([C@H]3O[C@H](CO)[C@@H](O)[C@H](O)[C@@H]3O)c2)c1", "note": "[Compound 50, N-methyl-3-[3-[(2R,3S,4R,5S,6R)-3,4,5-trihydroxy-6-(hydroxymethyl)tetrahydropyran-2-yl]phenyl]benzenesulfonamide]", "IC50": 39, "Kd": "10.7 ± 5.2"}
{"molecule": "COC(=O)c1cc(Oc2cccc([C@H]3O[C@H](CO)[C@@H](O)[C@H](O)[C@@H]3O)c2)cc(C(=O)OC)c1", "note": "[Compound 51, Dimethyl 5-[3-[(2R,3S,4R,5S,6R)-3,4,5-trihydroxy-6-(hydroxymethyl)tetrahydropyran-2-yl]phenoxy]benzene-1,3-dicarboxylate]", "IC50": 33, "Kd": "5.2 ± 0.1"}
{"molecule": "COC(=O)c1ccc(Oc2cccc([C@H]3O[C@H](CO)[C@@H](O)[C@H](O)[C@@H]3O)c2)cc1", "note": "[Compound 52, Methyl 4-[3-[(2R,3S,4R,5S,6R)-3,4,5-trihydroxy-6-(hydroxymethyl)tetrahydropyran-2-yl]phenoxy]benzoate]", "IC50": 23, "Kd": "< 5"}
{"molecule": "COC(=O)Cc1ccc(Oc2ccc([C@H]3O[C@H](CO)[C@@H](O)[C@H](O)[C@@H]3O)cc2)cc1", "note": "[Compound 55, methyl 2-(4-(4-((2R,3S,4R,5S,6R)-3,4,5-trihydroxy-6-(hydroxymethyl)tetrahydro-2H-pyran-2-yl)phenoxy)phenyl)acetate]", "IC50": 35, "Kd": "6.3 ± 0.4"}
{"molecule": "COC(=O)c1cccc(Oc2ccc([C@H]3O[C@H](CO)[C@@H](O)[C@H](O)[C@@H]3O)cc2)c1", "note": "[Compound 56, Methyl 3-(4-((2R,3S,4R,5S,6R)-3,4,5-trihydroxy-6-(hydroxymethyl)tetrahydro-2H-pyran-2-yl)phenoxy)benzoate]", "IC50": 14, "Kd": "5.4 ± 0.3"}
{"molecule": "OC[C@H]1O[C@H](c2cccc(Oc3ccc(F)cc3)c2)[C@@H](O)[C@@H](O)[C@@H]1O", "note": "[Compound 57, (2R,3S,4R,5S,6R)-2-[3-(4-fluorophenoxy)phenyl]-6-(hydroxymethyl)tetrahydropyran-3,4,5-triol]", "IC50": 76, "Kd": "13.2 ± 0.2"}
{"molecule": "Cc1cc(C)cc(Oc2cccc([C@H]3O[C@H](CO)[C@@H](O)[C@H](O)[C@@H]3O)c2)c1", "note": "[Compound 58, (2R,3S,4R,5S,6R)-2-[3-(3,5-dimethylphenoxy)phenyl]-6-(hydroxymethyl)tetrahydropyran-3,4,5-triol]", "IC50": 66, "Kd": "11.1 ± 1.6"}
{"molecule": "OC[C@H]1O[C@H](c2cccc(Oc3ccccc3)c2)[C@@H](O)[C@@H](O)[C@@H]1O", "note": "[Compound 59, (2R,3S,4R,5S,6R)-2-(hydroxymethyl)-6-(3-phenoxyphenyl)tetrahydropyran-3,4,5-triol]", "IC50": 26, "Kd": "6.3 ± 0.9"}
{"molecule": "COc1ccc([C@H]2O[C@H](CO)[C@@H](O)[C@H](O)[C@@H]2O)cc1O", "note": "[Compound 61, (2R,3S,4R,5S,6R)-2-(3-hydroxy-4-methoxy-phenyl)-6-(hydroxymethyl)tetrahydropyran-3,4,5-triol]", "IC50": 42, "Kd": "17.2 ± 10.7"}
